Assay results as given in patent US20240010639A1, “TRIAZINE DIONE DERIVATIVE, PREPARATION METHOD THEREFOR AND APPLICATION THEREOF IN MEDICINE” (Jiangsu Hengrui Pharmaceuticals Co., Ltd., priority 2020, published 2024).
Where two headings read alike, the source gives them in different places.

Columns and labels:
[1] = Pharmacokinetic evaluation in cynomolgus monkeys; format: in vivo; details: for AUC: read-out: Area under curve AUC; for half-life: read-out: Half-life T1/2 (converted); for Cmax: read-out: Plasma concentration Cmax; for MRT: read-out: Residence time MRT
Method: With cynomolgus monkeys as test animals, the plasma concentrations of the test compounds were measured by LC/MS/MS at different time points after intragastric administration and intravenous injection. The pharmacokinetic performance of the compound disclosed herein was studied in cynomolgus monkeys and its pharmacokinetic profile was evaluated.
Pharmacokinetics of the compound of Example 16 in cynomolgus monkeys: 8 cynomolgus monkeys, an equal number of males and females, divided into 2 groups of 4, provided by Shanghai Medicilon Inc.
Pharmacokinetics of compound MYK-461 in cynomolgus monkeys: 6 cynomolgus monkeys, male, divided into 2 groups of 3, provided by Shanghai Medicilon Inc.
A certain amount of the compound of Example 16 was measured out, and 5% DMSO, 30% PG, 30% PEG400 and 35% normal saline were added to prepare a clear solution.
A certain amount of compound MYK-461 was measured out, and 5% DMSO, 20% PG, 20% PEG400 and 55% normal saline were added to prepare a clear solution.
Cynomolgus monkeys were fasted overnight and then given compounds by intragastric administration and intravenous injection at doses of 2 mg/kg and 0.5 mg/kg, respectively, and at volumes of 5 mL/kg and 2 mL/kg, respectively.
1.0-mL blood samples were collected from the forelimb veins of the animals in the intragastric administration group before administration and 0.25 h, 0.5 h, 1h, 2 h, 4 h, 6 h, 8 h, 12 h and 24 h after administration, placed into EDTA-K2 anticoagulant tubes, and centrifuged at 10,000 rpm for 5 min (4° C.), and plasma was isolated within 1 h and stored at −80° C. before analysis. The blood collection to centrifugation process was performed under ice bath conditions. Three hours after administration, feeding was resumed, and ad libitum access to water was given.
Blood samples were collected from the animals in the intravenous injection group before administration and 5 min, 0.25 h, 0.5 h, 1.0 h, 2.0 h, 4.0 h, 8.0 h, 12.0 h and 24.0 h after administration and processed as in the intragastric administration group.
Determination of plasma concentrations in cynomolgus monkeys after intragastric administration and intravenous injection of different concentrations of test compounds: 20 μL of cynomolgus monkey plasma at each time point post-dose was mixed with an internal standard solution (internal standard for the compound of Example 16: 10 ng/mL verapamil; internal standard for compound MYK-461: 100 ng/mL camptothecin) and 400 μL of methanol; the mixture was vortexed for 1 min and centrifuged at 18,000 g for 7 min, and 200 μL of the supernatant was transferred to a 96-well plate: 2 μL of the supernatant was taken for LC/MS/MS analysis.

[2] = Toxicokinetic evaluation of 14-day repeated intragastric administration to SD rats; format: in vivo; details: both sexes, SD, rat, plasma, po; for Vd/F at 7 day: Day 7, read-out: Apparent volume of distribution Vz/F; for CL/F at 7 day: Day 7, read-out: Clearance CL/F; for half-life at 7 day: Day 7, read-out: Half-life T1/2 (converted); for MRT at 7 day: Day 7, read-out: Residence time MRT; for Vd/F at 14 day: Day 14, read-out: Apparent volume of distribution Vz/F; for CL/F at 14 day: Day 14, read-out: Clearance CL/F; for half-life at 14 day: Day 14, read-out: Half-life T1/2 (converted); for Cmax at 14 day: Day 14, read-out: Plasma concentration Cmax; for MRT at 14 day: Day 14, read-out: Residence time MRT
Method: With SD rats as test animals, the plasma concentrations of the test compounds and the concentrations of the original forms of the compounds in the administration solutions were measured by LC/MS/MS at different time points after intragastric administration. The toxicokinetic performance of the compound disclosed herein was studied in SD rats and its toxicokinetic profile was evaluated.
24 SD rats, an equal number of males and females, evenly divided into 6 groups of 4, an equal number of males and females in each group, provided by Vital River Laboratory Animal Technology Co., Ltd.
A certain amount of the compound of Example 16 was measured out, and 15% PEG400 and 85% (10% TPGS+1% HPMC K100LV) were added to prepare a pale yellow homogenous suspension.
A certain amount of compound MYK-461 was measured out, and 0.5% MC was added to prepare a colorless clear solution.
The compound of Example 16 was intragastrically administered at doses of 5 mg/kg, 15 mg/kg and 30 mg/kg, at a volume of 10 mL/kg.
Compound MYK-461 was administered at doses of 0.5 mg/kg, 1.5 mg/kg and 3 mg/kg, at a volume of 10 mL/kg.
0.2-mL blood samples were collected from the orbit 0.5 h, 1.0 h, 2.0 h, 4.0 h, 8.0 h and 24.0 h after administration on day 1, and before administration and 0.5 h, 1.0 h, 2.0 h, 4.0 h, 8.0 hi, 24.0 h after administration on day 7 and day 14, placed into EDTA-K2 anticoagulation tubes, and centrifuged at 10,000 rpm for 1 min (4° C.), and plasma was isolated within 1 h and stored at −20° C. before analysis. The blood collection to centrifugation process was performed under ice bath conditions. Two hours after administration, feeding was resumed.
Determination of plasma concentrations in SD rats after intragastric administration of different concentrations of test compounds: 20 μL of SD rat plasma at each time point post-dose was mixed with 50 μL of an internal standard solution (internal standard for the compound of Example 16: 100 ng/mL verapamil; internal standard for compound MYK-461: 100 ng(mL camptothecin) and 200 μL of acetonitrile; the mixture was vortexed for 5 min and centrifuged at 3700 rpm for 10 min, and 1 μL of the supernatant was taken for LC/MS/MS analysis.

[3] = both (Example 16), male (MYK-461), cynomolgus monkey, plasma, intravenous injection, 0.5 mg/kg
[4] = both (Example 16), male (MYK-461), cynomolgus monkey, plasma, po, intragastric administration, 2 mg/kg
[5] = intravenous injection, 0.5 mg/kg
[6] = 0.5 mg/kg, repeated intragastric 0.5 mg/kg
[7] = 1.5 mg/kg, repeated intragastric 1.5 mg/kg
[8] = 3 mg/kg, repeated intragastric 3.0 mg/kg

## CC(C)n1c(=O)cc(N[C@@H](C)c2ccccc2)[nH]c1=O [MYK-461, reference compound]
[1]
  T1/2 comparison (in words): longer T1/2
[1]; [3]
  AUC: 976 ng·h/mL
  half-life: 27.3 h
  Cmax: 222 ng/mL
  MRT: 42.8 h
[1]; both (Example 16), male (MYK-461), cynomolgus monkey, plasma, po, intragastric administration, 2 mg/kg, read-out: Apparent volume of distribution Vz/F
  Vd/F: 11.4 L/kg
[1]; [4]
  AUC: 3520 ng·h/mL
  half-life: 78.3 h
  Cmax: 563 ng/mL
  MRT: 114 h
[1]; both (Example 16), male (MYK-461), cynomolgus monkey, plasma, po, intragastric administration, 2 mg/kg, read-out: Clearance CL/F
  CL/F: 2.34 mL/min/kg
[1]; [5]
  Apparent volume of distribution Vz/F: 8.203 L/kg
  Clearance CL/F: 5.02 mL/min/kg
[2]; 0.5 mg/kg, repeated intragastric 0.5 mg/kg, Day 1, read-out: Apparent volume of distribution Vz/F
  Vd/F: 13.8 L/kg
[2]; 0.5 mg/kg, repeated intragastric 0.5 mg/kg, Day 1, read-out: Area under curve AUC
  AUC: 491 ng·h/mL
[2]; 0.5 mg/kg, repeated intragastric 0.5 mg/kg, Day 1, read-out: Clearance CL/F
  CL/F: 12.9 mL/min/kg
[2]; 0.5 mg/kg, repeated intragastric 0.5 mg/kg, Day 1, read-out: Half-life T1/2 (converted)
  half-life: 13.3 h
[2]; 0.5 mg/kg, repeated intragastric 0.5 mg/kg, Day 1, read-out: Plasma concentration Cmax
  Cmax: 40.2 ng/mL
[2]; 0.5 mg/kg, repeated intragastric 0.5 mg/kg, Day 1, read-out: Residence time MRT
  MRT: 19 h
[2]; [6]
  Vd/F at 7 day: 8.41 L/kg
  CL/F at 7 day: 7.46 mL/min/kg
  half-life at 7 day: 14.7 h
  MRT at 7 day: 21.3 h
  Vd/F at 14 day: 5.86 L/kg
  CL/F at 14 day: 3.06 mL/min/kg
  half-life at 14 day: 32.9 h
  Cmax at 14 day: 89.3 ng/mL
  MRT at 14 day: 47.3 h
[2]; 0.5 mg/kg, repeated intragastric 0.5 mg/kg, Day 7, read-out: Area under curve AUC
  AUC: 888 ng·h/mL
[2]; 0.5 mg/kg, repeated intragastric 0.5 mg/kg, Day 7, read-out: Plasma concentration Cmax
  Cmax: 51.7 ng/mL
[2]; 0.5 mg/kg, repeated intragastric 0.5 mg/kg, Day 14, read-out: Area under curve AUC
  AUC: 1560 ng·h/mL
[2]; 1.5 mg/kg, repeated intragastric 1.5 mg/kg, Day 1, read-out: Apparent volume of distribution Vz/F
  Vd/F at 1 day: 9.56 L/kg
[2]; 1.5 mg/kg, repeated intragastric 1.5 mg/kg, Day 1, read-out: Area under curve AUC
  AUC: 2580 ng·h/mL
[2]; 1.5 mg/kg, repeated intragastric 1.5 mg/kg, Day 1, read-out: Clearance CL/F
  CL/F at 1 day: 6.39 mL/min/kg
[2]; 1.5 mg/kg, repeated intragastric 1.5 mg/kg, Day 1, read-out: Half-life T1/2 (converted)
  half-life at 1 day: 19.1 h
[2]; 1.5 mg/kg, repeated intragastric 1.5 mg/kg, Day 1, read-out: Plasma concentration Cmax
  Cmax at 1 day: 140 ng/mL
[2]; 1.5 mg/kg, repeated intragastric 1.5 mg/kg, Day 1, read-out: Residence time MRT
  MRT at 1 day: 28.2 h
[2]; [7]
  Vd/F at 7 day: 4.8 L/kg
  CL/F at 7 day: 3.58 mL/min/kg
  half-life at 7 day: 20.5 h
  MRT at 7 day: 30.2 h
  Vd/F at 14 day: 5.03 L/kg
  CL/F at 14 day: 2.57 mL/min/kg
  half-life at 14 day: 26.2 h
  Cmax at 14 day: 333 ng/mL
  MRT at 14 day: 38.5 h
[2]; 1.5 mg/kg, repeated intragastric 1.5 mg/kg, Day 7, read-out: Area under curve AUC
  AUC: 5180 ng·h/mL
[2]; 1.5 mg/kg, repeated intragastric 1.5 mg/kg, Day 7, read-out: Plasma concentration Cmax
  Cmax at 7 day: 269 ng/mL
[2]; 1.5 mg/kg, repeated intragastric 1.5 mg/kg, Day 14, read-out: Area under curve AUC
  AUC: 6320 ng·h/mL
[2]; 3 mg/kg, repeated intragastric 3.0 mg/kg, Day 1, read-out: Apparent volume of distribution Vz/F
  Vd/F at 1 day: 8.93 L/kg
[2]; 3 mg/kg, repeated intragastric 3.0 mg/kg, Day 1, read-out: Area under curve AUC
  AUC: 5210 ng·h/mL
[2]; 3 mg/kg, repeated intragastric 3.0 mg/kg, Day 1, read-out: Clearance CL/F
  CL/F at 1 day: 4.91 mL/min/kg
[2]; 3 mg/kg, repeated intragastric 3.0 mg/kg, Day 1, read-out: Half-life T1/2 (converted)
  half-life at 1 day: 28.5 h
[2]; 3 mg/kg, repeated intragastric 3.0 mg/kg, Day 1, read-out: Plasma concentration Cmax
  Cmax at 1 day: 297 ng/mL
[2]; 3 mg/kg, repeated intragastric 3.0 mg/kg, Day 1, read-out: Residence time MRT
  MRT at 1 day: 43.1 h
[2]; [8]
  Vd/F at 7 day: 4.36 L/kg
  CL/F at 7 day: 1.97 mL/min/kg
  half-life at 7 day: 190 h
  MRT at 7 day: 275 h
  Vd/F at 14 day: 3.8 L/kg
  CL/F at 14 day: 1.3 mL/min/kg
  half-life at 14 day: 46.5 h
  Cmax at 14 day: 767 ng/mL
  MRT at 14 day: 68.1 h
[2]; 3 mg/kg, repeated intragastric 3.0 mg/kg, Day 7, read-out: Area under curve AUC
  AUC: 12500 ng·h/mL
[2]; 3 mg/kg, repeated intragastric 3.0 mg/kg, Day 7, read-out: Plasma concentration Cmax
  Cmax at 7 day: 628 ng/mL
[2]; 3 mg/kg, repeated intragastric 3.0 mg/kg, Day 14, read-out: Area under curve AUC
  AUC: 16000 ng·h/mL
